Consider one molecule from patent US9597311B2, “Suppression and prevention of tumors” (priority 2005, dated 2017).

A short description of the assay: Additional benefits of taking betaine in people. It counts as in vivo. An excerpt:
While the main benefit of a person or pet taking vitamin C and betaine in combination is the prevention/suppression of tumors, as mentioned before, additional benefits can be obtained depending upon the levels taken. Betaine is known to improve cardiovascular health, and can benefit people with fatty deposits in the liver. […] After only a few weeks of taking the betaine, cholesterol levels are reduced and the ability to lose weight is improved.

Regarding `C[N+](C)(C)CC(=O)[O-]` [betaine, trimethylglycine], the “tendency to be light headed when getting up after prolonged squatting or kneeling” value (after a few doses at about one and a half to about three grams per day, especially older people) was “considerably lessened”. Further, under “after only a few weeks of taking the betaine”, the cholesterol levels entry is given as “reduced”.
